Experimental findings from patent publication US20190105367A1, “ANTIMICROBIAL 4-OXOQUINOLIZINES” (Emergent Product Development Gaithersburg Inc., priority 2011, published 2019) are described below.

Values after ≈ are worked out from the molar mass of the structure shown. Where two headings read alike, the source gives them in different places.

By MIC is commonly meant the lowest concentration that inhibits growth of the organism. In general, MBC refers to the lowest tested concentration that kills the bacteria rather than only halting them.

For assay [1], the system named is A. baumannii A14. The assay can be described thus: Preliminary MBC without and with sub-inhibitory polymyxin B (Example 4). The assay is classed as cell-based, Acinetobacter baumannii. Conditions: A. baumannii A14, preliminary MBC, 1st experiment; for MBC +0.06 μg/ml PB: +0.06 μg/ml polymyxin B.
The test system of a further assay is S. pneumoniae 49619. The experiment in a line: MIC, panel of quinolone-resistant strains (Example 2). The assay is classed as cell-based, Streptococcus pneumoniae. Conditions: Streptococcus pneumoniae, 49619, read-out: MIC S. pneumoniae 49619.
The subject of the next assay is E. faecalis 29212. The assay can be described thus: MIC, standard panel of Gram-positive and Gram-negative strains (Example 2). To be noted: Enterococcus faecalis, 29212, read-out: MIC E. faecalis 29212. The assay is classed as cell-based, Enterococcus faecalis.
In a further assay the test system is E. cloacae 13047. The assay is described as above. Type of assay: cell-based, Enterobacter cloacae.
Another assay has as its system S. aureus SMITH. The experiment in a line: MIC, panel of quinolone-resistant strains (Example 2). Type of assay: cell-based. Conditions: Staphylococcus aureus, read-out: MIC S. aureus SMITH.
The next assay has as its system A. baumannii A329. The assay can be described thus: MIC without and with sub-inhibitory polymyxin B (Example 4). To be noted: +0.06 μg/ml PB, 2nd experiment; for MIC without PB/MIC + PB: A. baumannii A329. Type of assay: cell-based, Acinetobacter baumannii.
Another assay deals with A. baumannii A489. The experiment in a line: Preliminary MBC without and with sub-inhibitory polymyxin B (Example 4). The assay is classed as cell-based, Acinetobacter baumannii. Conditions: preliminary MBC.
The next assay deals with S. aureus 25923 HS. The experiment in a line: MIC, standard panel of Gram-positive and Gram-negative strains (Example 2). The assay is classed as cell-based. Conditions: Staphylococcus aureus, read-out: MIC S. aureus 25923 HS.
Assay [2] has as its system A. baumannii A14. The assay can be described thus: MIC without and with sub-inhibitory polymyxin B (Example 4). Conditions: 2nd experiment. Type of assay: cell-based, Acinetobacter baumannii.
The test system of the next assay is A. baumanii 19606. The assay can be described thus: MIC, standard panel of Gram-positive and Gram-negative strains (Example 2). To be noted: Acinetobacter baumannii. Type of assay: cell-based.
In another assay the test system is S. aureus 25923. The assay is described as above. Conditions: Staphylococcus aureus. Type of assay: cell-based.
For the next assay, the system named is B. thailandensis. The assay is classed as cell-based, Burkholderia thailandensis. Conditions: pH 7 vs pH 5.
The test system of assay [3] is strains of A. baumannii and one strain of Acinetobacter sp. The assay can be described thus: MIC without polymyxin B, panel of Acinetobacter strains (Example 4). The assay is classed as cell-based. Conditions: 1st experiment; resistant strains, ATCC 19606, A329, A390 and A473 not taken.
Where [4] appears, read: Acinetobacter baumannii, A489, A. baumannii A489, +[…] PB, 2nd experiment, read-out: MBC.
[5] abbreviates: Acinetobacter baumannii, A489, read-out: MBC +[…] PB, A. baumannii A489, +[…] polymyxin B, 1st experiment.
Where [6] appears, read: A. baumannii A14, +0.06 μg/ml PB.
The mark [7] stands for this setting: Acinetobacter baumannii, A14, A. baumannii A14, without PB, read-out: MIC.

For the molecule `Cc1c(-c2ccc(CN)cc2)ccn2c(=O)c(C(=O)O)cc(C3CC3)c12` [Compound 5, 8-(4-aminomethyl-phenyl)-1-cyclopropyl-9-methyl-4-oxo-quinolizine-3-carboxylic acid], the “MBC +0.06 μg/ml PB” value in the assay with A. baumannii A14 [1] worked out at 8 µg/mL. The MIC was 0.125 µg/mL (≈ 0.359 µM) in the assay with S. pneumoniae 49619; 0.125 µg/mL (≈ 0.359 µM) in the assay on E. faecalis 29212; 0.06 µg/mL (≈ 0.172 µM) in the assay on E. cloacae 13047 (Enterobacter cloacae, 13047; read-out: MIC E. cloacae 13047); 0.125 µg/mL (≈ 0.359 µM) in the assay on S. aureus SMITH; 0.125 µg/mL (≈ 0.359 µM) with S. aureus 25923 HS; 4 µg/mL (≈ 11.5 µM) against A. baumannii A14 [2] (setting [6]). The minimum inhibitory concentration (MIC) is 16 µg/mL (≈ 45.9 µM) with A. baumannii A14 [2] (setting [7]), 0.25 µg/mL (≈ 0.718 µM) in the assay on A. baumanii 19606 and 0.03 µg/mL (≈ 0.0861 µM) with S. aureus 25923. For the same molecule, the “MIC without PB/MIC + PB” value came to 1 in the assay with A. baumannii A329 and 4 in the assay on A. baumannii A14 [2] (setting [6]). Further, the MBC came out at 0.5 µg/mL (≈ 1.44 µM) in the assay on A. baumannii A489 (setting [4]) and 1 µg/mL (≈ 2.87 µM) in the assay with A. baumannii A489 (setting [5]).

As for `Cc1c(-c2ccc(CN)cc2)c(F)cn2c(=O)c(C(=O)O)cc(C3CC3)c12` [Compound 6, 8-(4-aminomethyl-phenyl)-1-cyclopropyl-7-fluoro-9-methyl-4-oxo-quinolizine-3-carboxylic acid], the “MBC +0.06 μg/ml PB” value in the assay with A. baumannii A14 [1] came out at 8 µg/mL. The MIC in the assay with S. pneumoniae 49619 was 0.125 µg/mL (≈ 0.341 µM); with E. faecalis 29212 it was 0.125 µg/mL (≈ 0.341 µM); in the assay on E. cloacae 13047 (Enterobacter cloacae, 13047, read-out: MIC E. cloacae 13047), 0.125 µg/mL (≈ 0.341 µM); in the assay on S. aureus SMITH, 0.125 µg/mL (≈ 0.341 µM); in the assay with A. baumannii A329 (Acinetobacter baumannii, A329, A. baumannii A329, read-out: MIC), 8 µg/mL (≈ 21.8 µM); in the assay with S. aureus 25923 HS it was 0.25 µg/mL (≈ 0.682 µM). The MIC against A. baumannii A14 [2] (setting [6]) came out at 4 µg/mL (≈ 10.9 µM); with A. baumannii A14 [2] (setting [7]) it was 16 µg/mL (≈ 43.7 µM); in the assay with A. baumanii 19606, 0.5 µg/mL (≈ 1.36 µM); in the assay with S. aureus 25923 it was 0.03 µg/mL (≈ 0.0819 µM). In addition, the “Dilutions improvement shift on B. thailandensis MIC90 (between pH 7 and pH 5)” value with B. thailandensis is “No”. In addition, the “MIC without PB/MIC + PB” value with A. baumannii A329 was 2; in the assay on A. baumannii A14 [2] (setting [6]), 4. Further, the MBC in the assay on A. baumannii A489 (setting [4]) amounted to 0.5 µg/mL (≈ 1.36 µM); with A. baumannii A489 (setting [5]), 1 µg/mL (≈ 2.73 µM).

Turning to Imipenem/cilastatin, in the assay with A. baumannii A14 [1], the “MBC +0.06 μg/ml PB” value stood at 1 µg/mL. The “MBC without PB” value with A. baumannii A14 [1] (without polymyxin B) was 2 µg/mL; in the assay with A. baumannii A489 (A. baumannii A489, without polymyxin B, 1st experiment), 64 µg/mL. Further, the “MIC range without PB Oct. 1, 2006 n = 8” value in assay [3] lay within 1 to 128 µg/mL. Further, the MBC against A. baumannii A489 (A. baumannii A489, +[…] PB, 2nd experiment) was found to be 0.25 µg/mL; against A. baumannii A489 (A. baumannii A489, without PB, 2nd experiment) it was 64 µg/mL. In the assay on A. baumannii A489 (A. baumannii A489, +[…] polymyxin B, 1st experiment), the “MBC +[…] PB” value worked out at 2 µg/mL. The minimum inhibitory concentration (MIC) stood at 1 µg/mL against A. baumannii A14 [2] (setting [6]) and 1 µg/mL with A. baumannii A14 [2] (A. baumannii A14, without PB).
